According to patent US5880111A, “Therapeutic derivations of diphosphonates” (priority 1995, dated 1999):
Converted amounts (≈) assume the structure as drawn. Read-outs that look alike come from different tables or passages of the source.

Legend:
Experiment in all cases: MIC by broth-dilution method
Type in all cases: cell-based
[1] = system: Staphylococcus aureus ATCC 25923
Description: (§1) The antibacterial action of the product was evaluated against the following bacterial strains:
Gram positive bacteria: Staphylococcus aureus ATCC 25923
(§2) The sensitivity of the foregoing bacterial strains to both the product of Example 1 and norfloxacin was investigated by the broth-dilution method, and the minimal inhibitory concentration (MIC) values were assessed. MIC was defined as the lowest concentration ([…]) at which no bacterial growth could be observed visually.
(§3) The antibiotics were dissolved in dimethylsulfoxide (DMSO) and the solution was diluted by nine consecutive 2-fold dilutions in Nutrient-broth (NB) culture medium. Aliquots (0.2 ml) from each of these diluted solutions were added to test tubes containing 1.6 ml NB culture medium. The antibiotics were investigated in the concentration range of 100-0.38 μg/ml.
(§4) After overnight culture in NB at 37° C., the bacterial cultures were diluted so that their optical densities (OD) at 620 nm were between 0.08-0.1.
(§5) Incubation of the test tubes took place in a thermostat at 37° C. The test tubes were inspected visually after 24 and 48 hours. The margin of error of in vitro sensitivity determination was ± one dilution step. MIC values were read after 48 hours of incubation. The MIC value was the lowest antibiotic concentration at which no bacterial growth was observed, i.e. the culture medium remained clear. […]

[2] = system: Staphylococcus epidermidis OKI 110001
Description: as §1
Staphylococcus epidermidis OKI 110001
as §2, §3, §4, §5

[3] = system: Salmonella typhi OKI 10084; settings: Salmonella enterica
Description: as §1
Gram negative bacteria: Salmonella typhi OKI 10084
as §2, §3, §4, §5

[4] = system: Streptococcus faecalis OKI 80171; settings: Enterococcus faecalis, OKI80171, Nutrient-broth, 37° C., read after 48 hours, mean of three independent experiments
Description: as §1
Streptococcus faecalis OKI 80171
as §2, §3, §4, §5

[5] = system: Escherichia coli OKI 35034
Description: as §1
Escherichia coli OKI 35034
as §2, §3, §4, §5

[6] = system: Pseudomonas aeruginosa ATCC 27853
Description: as §1
Pseudomonas aeruginosa ATCC 27853
as §2, §3, §4, §5

[7] = system: Proteus vulgaris OKI 60002
Description: as §1
Proteus vulgaris OKI 60002
as §2, §3, §4, §5

SMILES | MIC ([1]; Staphylococcus aureus, ATCC25923, 48 h) [µg/mL] | MIC ([2]; Staphylococcus epidermidis, OKI110001, 48 h) [µg/mL] | MIC ([3]; Salmonella typhi OKI 10084, Nutrient-broth, 37° C., read after 48 hours, mean of three independent experiments, read-out: MIC) [µg/mL] | MIC [4] [µg/mL] | MIC ([5]; Escherichia coli, OKI35034, 48 h) [µg/mL] | MIC ([6]; Pseudomonas aeruginosa, ATCC27853, 48 h) [µg/mL] | MIC ([7]; Proteus vulgaris, OKI60002, 48 h) [µg/mL] | MIC ([1]; ATCC25923, Staphylococcus aureus ATCC 25923, Nutrient-broth, 37° C., read after 48 hours, mean of three independent experiments, read-out: MIC) [µg/mL] | MIC ([2]; OKI110001, Staphylococcus epidermidis OKI 110001, Nutrient-broth, 37° C., read after 48 hours, only two experiments, read-out: MIC) [µg/mL] | MIC ([3]; TYPHI, 48 h) [µg/mL] | MIC ([5]; OKI35034, Escherichia coli OKI 35034, Nutrient-broth, 37° C., read after 48 hours, mean of three independent experiments, read-out: MIC) [µg/mL] | MIC ([6]; ATCC27853, Pseudomonas aeruginosa ATCC 27853, Nutrient-broth, 37° C., read after 48 hours, mean of three independent experiments, read-out: MIC) [µg/mL] | MIC ([7]; OKI60002, Proteus vulgaris OKI 60002, Nutrient-broth, 37° C., read after 48 hours, mean of three independent experiments, read-out: MIC) [µg/mL]
CCOP(=O)(OCC)C(CN1CCN(c2cc3c(cc2F)c(=O)c(C(=O)O)cn3CC)CC1)P(=O)(OCC)OCC [Example 1, 6-Fluoro-1-ethyl-7-{4-[2,2-bis(diethoxyphosphono)-1-ethyl]-l-piperazyl}-4-oxo-1,4-dihydroquinoline-3-carboxylic acid] | 12.5 (≈ 20.2 µM) | 12.5 (≈ 20.2 µM) | 25 (≈ 40.4 µM) | 12.5 (≈ 20.2 µM) | 25 (≈ 40.4 µM) | 50 (≈ 80.7 µM) | 3.12 (≈ 5.04 µM) |  |  |  |  |  | 
CCn1cc(C(=O)O)c(=O)c2cc(F)c(N3CCNCC3)cc21 [NORFLOXACIN, norfloxacin] |  |  |  | 12.5 (≈ 39.1 µM) |  |  |  | 6.25 (≈ 19.6 µM) | 6.25 (≈ 19.6 µM) | 12.5 (≈ 39.1 µM) | 6.25 (≈ 19.6 µM) | 25 (≈ 78.3 µM) | 6.25 (≈ 19.6 µM)
